Measured values reported in patent US20070219186A1, “Pyrazolo[1,5-A]pyrimidine derivatives and methods of use thereof” (priority 2006, published 2007).
Where two headings read alike, the source gives them in different places.

Molecular target: T1, human B-Raf (Homo sapiens, UniProt P15056)
T1 construct: Flag; GST; made in house; host or cells: Sf9 insect cells (B-Raf); E. coli (MEK1-GST)
Test: B-Raf Kinase to MEK1 ELISA
Format: biochemical
Conditions: for IC50: median, cpd concentrations from 10 μM to 30 nM in half log dilutions, read-out: Median IC50; for inhibition at 10 µM: read-out: % Inhib./10 uM
Text: TITLE: B-Raf Kinase to MEK1 ELISA
PURPOSE: To discover B-Raf Kinase inhibitors that can inhibit growth of tumor cells which contain oncogenic forms of Receptor Tyrosine Kinases or K-Ras, or B-Raf kinase.
Reagents: Flag/GST-tagged recombinant human B-Raf produced in Sf9 insect cells, human non-active Mek-1-GST (recombinant protein produced in E. coli); and a phospho-MEK1 specific poly-clonal Ab from Cell Signaling Technology (cat. #9121).
B-Raf1 Kinase Assay Procedure:
B-Raf-1 is used to phosphorylate GST-MEK1. MEK1 phosphorylation is measured by a phospho-specific antibody (from Cell Signaling Technology, cat. #9121) that detects phosphorylation of two serine residues at positions 217 and 221 on MEK1.
B-Raf Assay Stock Solutions:
1. Assay Dilution Buffer (ADB): 20 mM MOPS, pH 7.2, 25 mM β-glycerol phosphate, 5 mM EGTA, 1 mM sodium orthovanadate, 1 mM dithiothreitol.
2. Magnesium/ATP Cocktail: 200 μM cold ATP and 40 mM magnesium chloride in ADB.
3. Active Kinase: Active B-Raf: used at ˜20 ng per assay point.
4. Non-active GST-MEK1: Use at 100 nM (50 nM final).
6. Anti-GST Ab (Pharmacia)
7. Anti-rabbit Ab/Europium conjugate (Wallac)
1. Add 25 μl of ADB containing B-Raf and Mek per assay (i.e. per well of a 96 well plate)
2. Add 25 μl of 0.2 mM ATP and 40 mM magnesium chloride in ADB.
3. Incubate for 60 minutes at RT in a shaking incubator.
4. Transfer this mixture to an anti-GST Ab coated 96 well plate (Nunc Immunosorb plates coated o/n with a-GST.
5. Incubate for 60 minutes at 30° C. in a shaking incubator
6. Wash 3× with TBST, add Anti-Phospho MEK1 (1:1000)
7. Incubate for 60 minutes at 30° C. in a shaking incubator
8. Wash 3× with TBST, add Anti-rabbit Ab/Europium conjugate (Wallac) (1:500)
9. Incubate for 60 minutes at 30° C. in a shaking incubator
10. Add 100 ul of Wallac Delfia Enhancement Solution and shake for 10 minutes.
11. Read plates in Wallac Victor model Plate Reader.
12. Collect data analyze in Excel for single point and IC50 determinations.
Typically Raf-1 assay is run at cpd concentrations from 10 μM to 30 nM in half log dilutions. (% inhibition is determined for each cpd concentration)

T1 sequence (P15056 whole entry): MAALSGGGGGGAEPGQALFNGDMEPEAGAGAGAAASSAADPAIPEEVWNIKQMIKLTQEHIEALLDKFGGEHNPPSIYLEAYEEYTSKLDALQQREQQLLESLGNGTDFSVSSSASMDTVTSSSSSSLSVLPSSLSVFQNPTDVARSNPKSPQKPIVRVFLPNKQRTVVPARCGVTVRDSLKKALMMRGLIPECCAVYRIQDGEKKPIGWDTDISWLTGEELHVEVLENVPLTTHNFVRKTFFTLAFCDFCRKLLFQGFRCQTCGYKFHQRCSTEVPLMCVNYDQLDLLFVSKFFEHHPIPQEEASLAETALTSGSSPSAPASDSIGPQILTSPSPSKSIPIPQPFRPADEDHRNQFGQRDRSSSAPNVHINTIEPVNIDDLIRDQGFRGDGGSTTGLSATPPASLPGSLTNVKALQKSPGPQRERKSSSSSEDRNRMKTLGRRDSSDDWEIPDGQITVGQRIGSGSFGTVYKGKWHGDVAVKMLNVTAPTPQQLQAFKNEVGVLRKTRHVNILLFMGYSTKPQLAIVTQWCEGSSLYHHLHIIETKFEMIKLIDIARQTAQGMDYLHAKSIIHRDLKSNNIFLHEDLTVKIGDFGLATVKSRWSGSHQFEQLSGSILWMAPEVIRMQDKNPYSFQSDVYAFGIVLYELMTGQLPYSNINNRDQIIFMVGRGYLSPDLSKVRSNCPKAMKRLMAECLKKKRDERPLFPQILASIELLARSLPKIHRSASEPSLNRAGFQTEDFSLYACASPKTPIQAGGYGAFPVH

Row | Molecule | IC50 [µM] | % Inhib./10 uM (single point assay, 10 uM) [%] | inhibition at 10 µM [%] | inhibition at 10 µM (single point assay, 10 uM) [%]
1 | CCOC(=O)c1cnn2c(-c3cccc(NC(=O)c4ccccc4)c3)ccnc12 [Example 3, Pyrazolo[1,5-a]pyrimidine-3-carboxylic acid, 7-[3-(benzoylamino)phenyl]-, ethyl ester] | > 20 |  | 4 | 
2 | CCOC(=O)c1cnn2c(-c3cccc(NC(=O)c4cc5ccccc5s4)c3)ccnc12 [Example 5, ethyl 7-{3-[(1-benzothien-2-ylcarbonyl)amino]phenyl}pyrazolo[1,5-a]pyrimidine-3-carboxylate] | > 20 |  | 24 | 
3 | CCOC(=O)c1cnn2c(-c3cccc(NC(=O)c4ccc(Cl)cc4)c3)ccnc12 [Example 6, ethyl 7-{3-[(4-chlorobenzoyl)amino]phenyl}pyrazolo[1,5-a]pyrimidine-3-carboxylate] | > 20 |  | 38 | 
4 | CCOC(=O)c1cnn2c(-c3cccc(NC(=O)c4ccc(C(F)(F)F)c(F)c4)c3)ccnc12 [Example 9, ethyl 7-(3-{[3-fluoro-4-(trifluoromethyl)benzoyl]amino}phenyl)pyrazolo[1,5-a]pyrimidine-3-carboxylate] | > 20 |  | 20 | 
5 | CCOC(=O)c1cnn2c(-c3cccc(NC(=O)c4ccc(C(F)(F)F)cc4)c3)ccnc12 [Example 10, ethyl 7-(3-{[4-(trifluoromethyl)benzoyl]amino}phenyl)pyrazolo[1,5-a]pyrimidine-3-carboxylate] | > 10 |  | 27 | 
6 | CCOC(=O)c1cnn2c(-c3cccc(NS(=O)(=O)c4cccc(C(F)(F)F)c4)c3)ccnc12 [Example 12, ethyl 7-[3-({[3-(trifluoromethyl)phenyl]sulfonyl}amino)phenyl]pyrazolo[1,5-a]pyrimidine-3-carboxylate] | > 20 |  | 7 | 
7 | CCOC(=O)c1cnn2c(-c3cccc(NC(=O)c4cccc(C#N)c4)c3)ccnc12 [Example 13, ethyl 7-{3-[(3-cyanobenzoyl)amino]phenyl}pyrazolo[1,5-a]pyrimidine-3-carboxylate] | > 20 |  | 27 | 
8 | CCOC(=O)c1cnn2c(-c3cccc(NC(=O)Nc4ccc(Cl)cc4Cl)c3)ccnc12 [Example 14, ethyl 7-[3-({[(2,4-dichlorophenyl)amino]carbonyl}amino)phenyl]pyrazolo[1,5-a]pyrimidine-3-carboxylate] | > 10 |  | 0 | 
9 | CCOC(=O)c1cnn2c(-c3cccc(NC(=O)Nc4cc(Cl)cc(Cl)c4)c3)ccnc12 [Example 17, ethyl 7-[3-({[(3,5-dichlorophenyl)amino]carbonyl}amino)phenyl]pyrazolo[1,5-a]pyrimidine-3-carboxylate] | > 10 |  | 30 | 
10 | CCOC(=O)c1cnn2c(-c3cccc(NC(=O)Nc4ccc(SC)cc4)c3)ccnc12 [Example 18, ethyl 7-{3-[({[4-(methylthio)phenyl]amino}carbonyl)amino]phenyl}pyrazolo[1,5-a]pyrimidine-3-carboxylate] | > 10 |  | 0 | 
11 | CCOC(=O)c1cnn2c(-c3cccc(NC(=O)Nc4ccc(C(C)=O)cc4)c3)ccnc12 [Example 19, ethyl 7-[3-({[(4-acetylphenyl)amino]carbonyl}amino)phenyl]pyrazolo[1,5-a]pyrimidine-3-carboxylate] | > 10 |  | 0 | 
12 | CCOC(=O)c1cnn2c(-c3cccc(NC(=O)Nc4ccc(C(C)C)cc4)c3)ccnc12 [Example 20, ethyl 7-[3-({[(4-isopropylphenyl)amino]carbonyl}amino)phenyl]pyrazolo[1,5-a]pyrimidine-3-carboxylate] | > 10 |  | 30 | 
13 | CCOC(=O)c1cnn2c(-c3cccc(NC(=O)Nc4c(C)cc(C)cc4C)c3)ccnc12 [Example 22, ethyl 7-(3-{[(mesitylamino)carbonyl]amino}phenyl)pyrazolo[1,5-a]pyrimidine-3-carboxylate] | > 10 |  | 34 | 
14 | CCOC(=O)c1cnn2c(-c3cccc(NC(=O)Nc4ccc(OC(F)(F)F)cc4)c3)ccnc12 [Example 23, ethyl 7-{3-[({[4-(trifluoromethoxy)phenyl]amino}carbonyl)amino]phenyl}pyrazolo[1,5-a]pyrimidine-3-carboxylate] | > 10 |  | 20 | 
15 | CCOC(=O)c1cnn2c(-c3cccc(NC(=O)Nc4ccc(SC(F)(F)F)cc4)c3)ccnc12 [Example 24, ethyl 7-(3-{[({4-[(trifluoromethyl)thio]phenyl}amino)carbonyl]amino}phenyl)pyrazolo[1,5-a]pyrimidine-3-carboxylate] | > 10 |  | 11 | 
16 | CCOC(=O)c1cnn2c(-c3cccc(NC(=O)c4cc(C(F)(F)F)ccc4Cl)c3)ccnc12 [Example 27, ethyl 7-(3-{[2-chloro-5-(trifluoromethyl)benzoyl]amino}phenyl)pyrazolo[1,5-a]pyrimidine-3-carboxylate] | > 10 |  | 12 | 

The next lines start with the values.

Row | IC50 [µM] | % Inhib./10 uM (single point assay, 10 uM) [%] | inhibition at 10 µM [%] | inhibition at 10 µM (single point assay, 10 uM) [%] | Molecule
17 | > 10 | 48 |  |  | 4-[7-(3-{[3-(trifluoromethyl)benzoyl]amino}phenyl)pyrazolo[1,5-a]pyrimidin-2-yl]benzyl acetate [Example 142]
18 | 0.72 |  | 66 |  | CCOC(=O)c1cnn2c(-c3cccc(NC(=O)c4cccc(C(F)(F)F)c4)c3)ccnc12 [Example 1, Pyrazolo[1,5-a]pyrimidine-3-carboxylic acid, 7-[3-[[3-(trifluoromethyl)-benzoyl]amino]phenyl]-, ethyl ester]
19 | 17 |  | 84 |  | CCOC(=O)c1cnn2c(-c3cccc(NC(=O)c4ccc(F)c(C(F)(F)F)c4)c3)ccnc12 [Example 2, ethyl 7-(3-{[4-fluoro-3-(trifluoromethyl)benzoyl]amino}phenyl)pyrazolo[1,5-a]pyrimidine-3-carboxylate]
20 | > 10 |  | 4 |  | CCOC(=O)c1cnn2c(-c3cccc(NC(=O)c4cccc(Br)c4)c3)ccnc12 [Example 4, ethyl 7-{3-[(3-bromobenzoyl)amino]phenyl}pyrazolo[1,5-a]pyrimidine-3-carboxylate]
21 | 1.43 |  |  | 67 | CCOC(=O)c1cnn2c(-c3cccc(NC(=O)c4cccc(OC(F)(F)F)c4)c3)ccnc12 [Example 7, ethyl 7-(3-{[3-(trifluoromethoxy)benzoyl]amino}phenyl)pyrazolo[1,5-a]pyrimidine-3-carboxylate]
22 | > 10 |  |  | 28 | CCOC(=O)c1cnn2c(-c3cccc(NC(=O)c4cccc(OC)c4)c3)ccnc12 [Example 8, ethyl 7-{3-[(3-methoxybenzoyl)amino]phenyl}pyrazolo[1,5-a]pyrimidine-3-carboxylate]
23 | 0.3 |  |  | 93 | CCOC(=O)c1cnn2c(-c3cccc(NC(=O)Nc4ccc(Cl)c(C(F)(F)F)c4)c3)ccnc12 [Example 11, ethyl 7-{3-[({[4-chloro-3-(trifluoromethyl)phenyl]amino}carbonyl)amino]phenyl}pyrazolo[1,5-a]pyrimidine-3-carboxylate]
24 | 3.78 |  | 31 |  | CCOC(=O)c1cnn2c(-c3cccc(NC(=O)Nc4cc(C(F)(F)F)cc(C(F)(F)F)c4)c3)ccnc12 [Example 16, ethyl 7-{3-[({[3,5-bis(trifluoromethyl)phenyl]amino}carbonyl)amino]phenyl}pyrazolo[1,5-a]pyrimidine-3-carboxylate]
25 | 2.3 |  | 58 |  | CCOC(=O)c1cnn2c(-c3cccc(NC(=O)Nc4ccc5ccccc5c4)c3)ccnc12 [Example 21, ethyl 7-(3-{[(2-naphthylamino)carbonyl]amino}phenyl)pyrazolo[1,5-a]pyrimidine-3-carboxylate]
26 | 0.6 |  | 76 |  | CCOC(=O)c1cnn2c(-c3cccc(NC(=O)Nc4ccc(F)c(Cl)c4)c3)ccnc12 [Example 25, ethyl 7-[3-({[(3-chloro-4-fluorophenyl)amino]carbonyl}amino)phenyl]pyrazolo[1,5-a]pyrimidine-3-carboxylate]
27 | 0.5 |  |  | 76 | CCOC(=O)c1cnn2c(-c3cccc(NC(=O)c4ccc(C)c(C(F)(F)F)c4)c3)ccnc12 [Example 26, ethyl 7-(3-{[4-methyl-3-(trifluoromethyl)benzoyl]amino}phenyl)pyrazolo[1,5-a]pyrimidine-3-carboxylate]
